For one assay, the target named is KDR (Homo sapiens, UniProt P35968). The assay can be described thus: KDR HTRF in vitro kinase assay. The following applies: 1 mM ATP; read-out: KDR enzyme inhibition data (Ki). Details: purified enzyme (His6-KDR 789-1354, MW 63 kD); His6 (N). The class given is biochemical. The method in brief:
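His6-KDR 789-1354 (7 ng/well) with 0.5 μM biotinylated peptide substrate and 1 mM ATP in HEPES pH 7.1, MgCl2/MnCl2, 60 min at room temperature. EDTA-quenched, detected by streptavidin-XL-665 plus Eu-kryptate anti-phosphotyrosine HTRF after 3 h; IC50 from 620/665 nm ratio.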
For orientation: In TR-FRET formats the signal depends on donor and acceptor labels being close together.

A further assay concerns NCI-H1299 cells. Briefly: Induction of polyploidy in H1299. The class given is cell-based, Human. The following applies: NCI-H1299, 48 hours; for EC15: Homo sapiens, read-out: EC15 (concentration of inhibitor necessary to induce polyploidy in 15% of cells). The method in brief:
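NCI-H1299 cells in RPMI 1640/10% FCS were treated with inhibitor concentrations in duplicate for 48 h at 37 C, then formalin-fixed and Hoechst-stained. Nuclear area was measured by high-content imaging, with polyploid (≥4N) defined as >750 μ^2. EC15 was derived by least-squares fit of log dose-response.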

By Ki is commonly meant the equilibrium dissociation constant of an inhibitor or competing ligand from its target.

Chain of KDR (P35968 789-1354): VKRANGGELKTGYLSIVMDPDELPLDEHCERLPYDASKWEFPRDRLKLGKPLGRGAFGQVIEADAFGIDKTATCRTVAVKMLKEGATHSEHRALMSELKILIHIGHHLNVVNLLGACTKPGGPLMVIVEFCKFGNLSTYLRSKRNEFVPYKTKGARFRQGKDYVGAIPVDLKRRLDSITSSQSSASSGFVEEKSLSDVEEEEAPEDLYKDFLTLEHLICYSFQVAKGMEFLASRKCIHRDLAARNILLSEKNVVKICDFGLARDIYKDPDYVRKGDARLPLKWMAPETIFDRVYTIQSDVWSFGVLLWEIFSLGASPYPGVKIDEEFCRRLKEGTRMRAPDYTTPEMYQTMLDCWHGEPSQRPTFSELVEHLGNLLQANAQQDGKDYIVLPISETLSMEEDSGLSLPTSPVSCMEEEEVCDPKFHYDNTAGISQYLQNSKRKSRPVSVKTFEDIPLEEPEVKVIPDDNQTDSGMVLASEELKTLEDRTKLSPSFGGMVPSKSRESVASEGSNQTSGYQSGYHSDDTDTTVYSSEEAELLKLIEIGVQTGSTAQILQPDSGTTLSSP

Consider `CCn1cc(Nc2ncc(C(F)(F)F)c(N[C@@H]3[C@H](C(N)=O)[C@H]4C=C[C@@H]3C4)n2)cn1.CCn1cc(Nc2ncc(C(F)(F)F)c(N[C@H]3[C@@H](C(N)=O)[C@@H]4C=C[C@H]3C4)n2)cn1` (mixture of isomers) [Example 22, (1S,2S,3R,4R)-3-{[2-[(1-ethyl-1H-pyrazol-4-yl)amino]-5-(trifluoromethyl)pyrimidin-4-yl]amino}bicyclo[2.2.1]hept-5-ene-2-carboxamide and (1R,2R,3S,4S)-3-{[2-[(1-ethyl-1H-pyrazol-4-yl)amino]-5-(trifluoromethyl)pyrimidin-4-yl]amino}bicyclo[2.2.1]hept-5-ene-2-carboxamide], for which the Ki on KDR is under 100 nM. In addition, the “EC15 (concentration of inhibitor necessary to induce polyploidy in 15% of cells)” value in the assay with NCI-H1299 cells is given as “A (“A” represents an EC15 of less than 0.1 μM)”.
Turning to `Cn1cc(Nc2ncc(Cl)c(N[C@H]3[C@@H](C(N)=O)C[C@H]4C[C@@H]3C4(C)C)n2)cn1` [Example 165, (1R,2R,3S,5R)-2-({5-chloro-2-[(1-methyl-1H-pyrazol-4-yl)amino]pyrimidin-4-yl}amino)-6,6-dimethylbicyclo[3.1.1]heptane-3-carboxamide], the Ki on KDR was under 100 nM. The EC15 with NCI-H1299 cells is under 100 nM.
Consider `CN1CCN(CCn2cc(Nc3ncc(Cl)c(N[C@H]4[C@@H](C(N)=O)[C@@H]5C=C[C@H]4C5)n3)cn2)CC1` [Example 91, (1S,2S,3R,4R)-3-{[5-chloro-2-({1-[2-(4-methylpiperazin-1-yl)ethyl]-1H-pyrazol-4-yl}amino)pyrimidin-4-yl]amino}bicyclo[2.2.1]hept-5-ene-2-carboxamide], for which the Ki at KDR is under 100 nM. The EC15 in the assay on NCI-H1299 cells was under 100 nM.
For `Cc1c(Nc2ncc(Br)c(N[C@H]3[C@@H](C(N)=O)[C@@H]4C=C[C@H]3C4)n2)cnn1C` [Example 170, (1S,2S,3R,4R)-3-({5-bromo-2-[(1,5-dimethyl-1H-pyrazol-4-yl)amino]pyrimidin-4-yl}amino)bicyclo[2.2.1]hept-5-ene-2-carboxamide], the Ki on KDR is under 100 nM. The EC15 in the assay on NCI-H1299 cells is under 100 nM.
Consider `NC(=O)[C@@H]1[C@H](Nc2nc(Nc3cnn(C[C@@H](O)CO)c3)ncc2Cl)[C@H]2C=C[C@@H]1C2` [Example 130, (1S,2S,3R,4R)-3-{[5-chloro-2-({1-[(2R)-2,3-dihydroxypropyl]-1H-pyrazol-4-yl}amino)pyrimidin-4-yl]amino}bicyclo[2.2.1]hept-5-ene-2-carboxamide], for which the Ki at KDR is under 100 nM. Further, the EC15 in the assay with NCI-H1299 cells was under 100 nM.
On to `NC(=O)[C@@H]1[C@H](Nc2nc(Nc3cnn(Cc4ccccc4Cl)c3)ncc2Br)[C@H]2C=C[C@@H]1C2` [Example 171, (1S,2S,3R,4R)-3-[(5-bromo-2-{[1-(2-chlorobenzyl)-1H-pyrazol-4-yl]amino}pyrimidin-4-yl)amino]bicyclo[2.2.1]hept-5-ene-2-carboxamide], for which, at KDR, the inhibition constant (Ki) is under 100 nM. Also, the EC15 with NCI-H1299 cells was under 100 nM.
In the case of `NC(=O)[C@@H]1[C@H](Nc2nc(Nc3cnn(Cc4ccccc4)c3)ncc2Cl)[C@H]2C=C[C@@H]1C2` [Example 144, (1S,2S,3R,4R)-3-({2-[(1-benzyl-1H-pyrazol-4-yl)amino]-5-chloropyrimidin-4-yl}amino)bicyclo[2.2.1]hept-5-ene-2-carboxamide], the Ki on KDR was under 100 nM. The EC15 in the assay with NCI-H1299 cells was under 100 nM.
In the case of `COCCn1cc(Nc2ncc(Br)c(N[C@H]3[C@@H](C(N)=O)[C@@H]4C=C[C@H]3C4)n2)cn1` [Example 106, (1S,2S,3R,4R)-3-[(5-bromo-2-{[1-(2-methoxyethyl)-1H-pyrazol-4-yl]amino}pyrimidin-4-yl)amino]bicyclo[2.2.1]hept-5-ene-2-carboxamide], at KDR, the Ki is under 100 nM. Besides, the EC15 with NCI-H1299 cells was under 100 nM.
With `COc1cccc(Cn2cc(Nc3ncc(Cl)c(N[C@H]4[C@@H](C(N)=O)[C@@H]5C=C[C@H]4C5)n3)cn2)c1` [Example 155, (1S,2S,3R,4R)-3-[(5-chloro-2-{[1-(3-methoxybenzyl)-1H-pyrazol-4-yl]amino}pyrimidin-4-yl)amino]bicyclo[2.2.1]hept-5-ene-2-carboxamide], the Ki at KDR was under 100 nM. Further, in the assay with NCI-H1299 cells, the EC15 was under 100 nM.

The values above are taken from patent US8426408B2, “Pyrimidine inhibitors of kinases” (AbbVie Inc., priority 2009, dated 2013).
